The text below walks through data of ChEMBL document CHEMBL1148870, “Novel inhibitors of VEGF receptors-1 and -2 based on azole-5-carboxamide templates” (Bioorg Med Chem Lett, 2007).

Assay [1] deals with Vascular endothelial growth factor receptor 1 (Homo sapiens, UniProt P17948). Kind of assay: Inhibition of VEGFR1 assessed as inhibition of phosphorylation in presence of 2 uM ATP by HTRF assay. It is filed as functional.
In assay [2] the target is T1, Vascular endothelial growth factor receptor 2 (Homo sapiens, UniProt P35968). Kind of assay: Inhibition of VEGFR2 assessed as inhibition of phosphorylation in presence of 2 uM ATP by HTRF assay. It is filed as functional.
In assay [3] the target is T1, Vascular endothelial growth factor receptor 2. Kind of assay: Inhibition of VEGFR2 assessed as inhibition of phosphorylation in human 293 cells by cell-based ELISA. It is filed as functional, HEK293. In general terms: ELISA stands for enzyme-linked immunosorbent assay.
For assay [4], the target named is Insulin-like growth factor 1 receptor (Homo sapiens) (UniProt P08069). Kind of assay: Inhibition of IGF1R at 10 uM. Set-up: scale not given: the % may be the effect or the level left.
The species named for assay [5] is Homo sapiens. Kind of assay: Inhibition of InR at 10 uM. Set-up: scale not given: the % may be the effect or the level left.
The target of assay [6] is Fibroblast growth factor receptor 1 (Homo sapiens) (UniProt P11362). Kind of assay: Inhibition of FGFR1 at 10 uM. Set-up: scale not given: the % may be the effect or the level left.
In assay [7] the target is Receptor-type tyrosine-protein kinase FLT3 (Homo sapiens) (UniProt P36888). Kind of assay: Inhibition of Flt3 at 10 uM. Set-up: scale not given: the % may be the effect or the level left.
Assay [8] deals with Vascular endothelial growth factor receptor 3 (Homo sapiens) (UniProt P35916). The assay can be described thus: Inhibition of Flt4 at 10 uM. Set-up: scale not given: the % may be the effect or the level left.
Assay [9] addresses Epidermal growth factor receptor (Homo sapiens) (UniProt P00533). The assay can be described thus: Inhibition of ErbB1 at 10 uM. Set-up: scale not given: the % may be the effect or the level left.
The target in assay [10] is Receptor tyrosine-protein kinase erbB-2 (Homo sapiens) (UniProt P04626). Kind of assay: Inhibition of ErbB2/Her2 at 10 uM. Set-up: scale not given: the % may be the effect or the level left.
Assay [11] concerns the target Hepatocyte growth factor receptor (Homo sapiens) (UniProt P08581). The assay can be described thus: Inhibition of cMet at 10 uM. Set-up: scale not given: the % may be the effect or the level left.
The species named for assay [12] is Homo sapiens. The assay can be described thus: Inhibition of PKA at 10 uM. Set-up: scale not given: the % may be the effect or the level left.
Assay [13] addresses Glycogen synthase kinase-3 beta (Homo sapiens) (UniProt P49841). Kind of assay: Inhibition of GSK3-beta at 10 uM. Set-up: scale not given: the % may be the effect or the level left.
In assay [14] the target is RAC-alpha serine/threonine-protein kinase (Homo sapiens) (UniProt P31749). Kind of assay: Inhibition of PKB/Akt at 10 uM. Set-up: scale not given: the % may be the effect or the level left.
The species named for assay [15] is Homo sapiens. Kind of assay: Inhibition of bcr-Abl at 10 uM. Set-up: scale not given: the % may be the effect or the level left.
For assay [16], the species on record is Homo sapiens. Kind of assay: Inhibition of Cdk1 at 10 uM. Set-up: scale not given: the % may be the effect or the level left.
Assay [17] concerns the target RAF proto-oncogene serine/threonine-protein kinase (Homo sapiens) (UniProt P04049). Kind of assay: Inhibition of Raf1 at 10 uM. Set-up: scale not given: the % may be the effect or the level left.
In assay [18] the target is Cyclin-dependent kinase 2 (Homo sapiens) (UniProt P24941). Kind of assay: Inhibition of Cdk2 at 10 uM. Set-up: scale not given: the % may be the effect or the level left.

Epidermal growth factor receptor (Homo sapiens), sequence (P00533 whole entry): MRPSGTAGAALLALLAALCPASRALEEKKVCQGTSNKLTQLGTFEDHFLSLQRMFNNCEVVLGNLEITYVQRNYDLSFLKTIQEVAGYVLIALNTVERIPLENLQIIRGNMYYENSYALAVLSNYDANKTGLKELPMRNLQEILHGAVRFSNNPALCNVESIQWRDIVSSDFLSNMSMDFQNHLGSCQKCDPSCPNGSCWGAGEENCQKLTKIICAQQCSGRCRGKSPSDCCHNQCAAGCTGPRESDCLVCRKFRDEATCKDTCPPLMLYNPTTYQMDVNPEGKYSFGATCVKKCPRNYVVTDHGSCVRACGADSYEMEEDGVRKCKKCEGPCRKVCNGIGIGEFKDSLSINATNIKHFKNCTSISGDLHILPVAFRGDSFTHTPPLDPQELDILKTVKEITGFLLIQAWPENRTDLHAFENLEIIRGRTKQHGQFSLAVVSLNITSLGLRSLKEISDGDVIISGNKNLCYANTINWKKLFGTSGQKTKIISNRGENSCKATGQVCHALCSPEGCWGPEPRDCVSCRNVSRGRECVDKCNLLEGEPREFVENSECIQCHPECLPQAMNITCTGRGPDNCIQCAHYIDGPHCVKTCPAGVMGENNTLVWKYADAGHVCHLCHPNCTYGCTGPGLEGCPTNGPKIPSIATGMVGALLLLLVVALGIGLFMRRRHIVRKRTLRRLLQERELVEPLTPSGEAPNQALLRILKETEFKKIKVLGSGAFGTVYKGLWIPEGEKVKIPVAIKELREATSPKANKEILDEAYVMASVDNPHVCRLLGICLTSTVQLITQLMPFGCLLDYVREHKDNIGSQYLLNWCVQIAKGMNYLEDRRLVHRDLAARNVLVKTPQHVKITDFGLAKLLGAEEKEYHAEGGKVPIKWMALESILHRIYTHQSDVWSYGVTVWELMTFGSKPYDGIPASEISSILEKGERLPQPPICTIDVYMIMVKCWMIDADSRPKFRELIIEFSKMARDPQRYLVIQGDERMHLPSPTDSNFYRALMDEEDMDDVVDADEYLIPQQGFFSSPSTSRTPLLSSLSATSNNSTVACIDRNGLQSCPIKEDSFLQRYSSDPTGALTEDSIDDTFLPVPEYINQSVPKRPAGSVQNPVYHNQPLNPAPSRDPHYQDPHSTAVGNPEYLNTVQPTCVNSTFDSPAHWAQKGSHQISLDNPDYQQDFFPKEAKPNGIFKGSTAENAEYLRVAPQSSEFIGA
Vascular endothelial growth factor receptor 1, sequence (P17948 whole entry): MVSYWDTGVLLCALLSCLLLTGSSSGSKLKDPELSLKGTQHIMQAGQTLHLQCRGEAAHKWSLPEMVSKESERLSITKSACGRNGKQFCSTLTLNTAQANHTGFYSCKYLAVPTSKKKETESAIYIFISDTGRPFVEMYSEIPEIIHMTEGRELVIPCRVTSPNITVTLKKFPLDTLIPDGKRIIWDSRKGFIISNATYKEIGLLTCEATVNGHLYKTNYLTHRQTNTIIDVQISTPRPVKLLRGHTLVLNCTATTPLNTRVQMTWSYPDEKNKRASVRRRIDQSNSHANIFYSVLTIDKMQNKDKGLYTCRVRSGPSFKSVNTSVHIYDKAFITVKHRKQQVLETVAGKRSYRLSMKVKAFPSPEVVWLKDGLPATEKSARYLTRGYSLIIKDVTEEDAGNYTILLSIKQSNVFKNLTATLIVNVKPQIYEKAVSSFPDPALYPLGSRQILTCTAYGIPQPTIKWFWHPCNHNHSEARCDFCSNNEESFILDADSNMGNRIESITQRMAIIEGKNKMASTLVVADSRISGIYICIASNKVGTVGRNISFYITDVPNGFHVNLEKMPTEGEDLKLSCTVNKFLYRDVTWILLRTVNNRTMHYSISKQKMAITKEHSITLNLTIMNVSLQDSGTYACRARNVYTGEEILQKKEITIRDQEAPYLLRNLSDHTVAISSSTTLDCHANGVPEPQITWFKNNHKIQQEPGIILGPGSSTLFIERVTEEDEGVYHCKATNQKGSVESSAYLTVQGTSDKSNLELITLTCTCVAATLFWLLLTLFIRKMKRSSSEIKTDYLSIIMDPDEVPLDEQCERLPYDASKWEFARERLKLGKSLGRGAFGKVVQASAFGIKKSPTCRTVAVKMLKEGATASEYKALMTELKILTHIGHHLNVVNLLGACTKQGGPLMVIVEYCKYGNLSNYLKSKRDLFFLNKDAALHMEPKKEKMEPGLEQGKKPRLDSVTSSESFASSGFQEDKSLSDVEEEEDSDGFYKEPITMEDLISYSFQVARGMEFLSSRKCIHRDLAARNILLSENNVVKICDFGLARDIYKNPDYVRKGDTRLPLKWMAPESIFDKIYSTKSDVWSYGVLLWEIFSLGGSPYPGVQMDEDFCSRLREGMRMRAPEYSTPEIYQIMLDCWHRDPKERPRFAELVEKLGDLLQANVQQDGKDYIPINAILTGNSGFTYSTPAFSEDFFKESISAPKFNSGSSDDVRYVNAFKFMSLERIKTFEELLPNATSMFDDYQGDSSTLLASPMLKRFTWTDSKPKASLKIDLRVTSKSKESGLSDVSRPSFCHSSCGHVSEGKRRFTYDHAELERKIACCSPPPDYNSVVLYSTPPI
Receptor tyrosine-protein kinase erbB-2 (Homo sapiens), sequence (P04626 whole entry): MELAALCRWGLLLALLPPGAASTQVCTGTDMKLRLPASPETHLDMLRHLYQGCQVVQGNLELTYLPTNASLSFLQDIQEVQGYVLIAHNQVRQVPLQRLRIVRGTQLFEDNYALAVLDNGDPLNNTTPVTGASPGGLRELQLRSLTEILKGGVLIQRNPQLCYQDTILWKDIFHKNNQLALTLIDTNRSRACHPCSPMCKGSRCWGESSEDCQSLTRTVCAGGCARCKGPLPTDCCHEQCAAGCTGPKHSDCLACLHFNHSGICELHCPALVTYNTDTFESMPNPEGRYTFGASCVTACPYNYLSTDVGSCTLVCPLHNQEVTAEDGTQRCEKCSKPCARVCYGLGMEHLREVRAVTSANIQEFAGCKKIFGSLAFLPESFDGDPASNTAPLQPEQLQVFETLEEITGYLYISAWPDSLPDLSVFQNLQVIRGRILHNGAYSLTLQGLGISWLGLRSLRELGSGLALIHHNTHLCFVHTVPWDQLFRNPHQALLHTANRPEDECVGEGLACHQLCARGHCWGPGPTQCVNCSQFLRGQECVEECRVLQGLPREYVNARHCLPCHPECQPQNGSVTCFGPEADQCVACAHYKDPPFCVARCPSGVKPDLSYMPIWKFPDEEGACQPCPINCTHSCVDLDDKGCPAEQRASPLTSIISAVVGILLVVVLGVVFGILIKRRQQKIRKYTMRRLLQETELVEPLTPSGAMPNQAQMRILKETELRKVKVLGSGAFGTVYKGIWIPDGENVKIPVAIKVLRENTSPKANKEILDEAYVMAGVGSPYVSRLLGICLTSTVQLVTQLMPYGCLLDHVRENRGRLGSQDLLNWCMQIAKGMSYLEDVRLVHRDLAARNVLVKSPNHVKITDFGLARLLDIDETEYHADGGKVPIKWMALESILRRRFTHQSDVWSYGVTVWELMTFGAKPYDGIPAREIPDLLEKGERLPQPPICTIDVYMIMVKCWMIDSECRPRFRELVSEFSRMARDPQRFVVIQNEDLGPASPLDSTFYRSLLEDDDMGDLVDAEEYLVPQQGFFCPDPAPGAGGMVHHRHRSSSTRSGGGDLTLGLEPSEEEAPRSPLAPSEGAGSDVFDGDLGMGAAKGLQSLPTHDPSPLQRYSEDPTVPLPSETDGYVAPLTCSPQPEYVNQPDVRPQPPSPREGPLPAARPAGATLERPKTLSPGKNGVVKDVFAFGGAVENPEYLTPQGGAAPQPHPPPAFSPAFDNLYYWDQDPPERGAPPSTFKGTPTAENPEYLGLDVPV
Glycogen synthase kinase-3 beta (Homo sapiens), sequence (P49841 whole entry, looked up): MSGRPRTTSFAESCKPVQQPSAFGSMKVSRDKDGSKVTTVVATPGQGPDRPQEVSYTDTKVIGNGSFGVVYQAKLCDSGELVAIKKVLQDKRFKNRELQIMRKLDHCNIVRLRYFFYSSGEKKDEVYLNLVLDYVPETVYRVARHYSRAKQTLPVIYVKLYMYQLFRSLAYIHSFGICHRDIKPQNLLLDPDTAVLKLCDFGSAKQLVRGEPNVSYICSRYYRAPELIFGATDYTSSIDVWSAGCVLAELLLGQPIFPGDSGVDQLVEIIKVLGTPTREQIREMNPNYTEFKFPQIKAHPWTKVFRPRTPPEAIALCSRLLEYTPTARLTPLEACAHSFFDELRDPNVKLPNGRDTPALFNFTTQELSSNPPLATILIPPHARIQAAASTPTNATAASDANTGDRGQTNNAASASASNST
Fibroblast growth factor receptor 1 (Homo sapiens), sequence (P11362 22-822 limits assumed): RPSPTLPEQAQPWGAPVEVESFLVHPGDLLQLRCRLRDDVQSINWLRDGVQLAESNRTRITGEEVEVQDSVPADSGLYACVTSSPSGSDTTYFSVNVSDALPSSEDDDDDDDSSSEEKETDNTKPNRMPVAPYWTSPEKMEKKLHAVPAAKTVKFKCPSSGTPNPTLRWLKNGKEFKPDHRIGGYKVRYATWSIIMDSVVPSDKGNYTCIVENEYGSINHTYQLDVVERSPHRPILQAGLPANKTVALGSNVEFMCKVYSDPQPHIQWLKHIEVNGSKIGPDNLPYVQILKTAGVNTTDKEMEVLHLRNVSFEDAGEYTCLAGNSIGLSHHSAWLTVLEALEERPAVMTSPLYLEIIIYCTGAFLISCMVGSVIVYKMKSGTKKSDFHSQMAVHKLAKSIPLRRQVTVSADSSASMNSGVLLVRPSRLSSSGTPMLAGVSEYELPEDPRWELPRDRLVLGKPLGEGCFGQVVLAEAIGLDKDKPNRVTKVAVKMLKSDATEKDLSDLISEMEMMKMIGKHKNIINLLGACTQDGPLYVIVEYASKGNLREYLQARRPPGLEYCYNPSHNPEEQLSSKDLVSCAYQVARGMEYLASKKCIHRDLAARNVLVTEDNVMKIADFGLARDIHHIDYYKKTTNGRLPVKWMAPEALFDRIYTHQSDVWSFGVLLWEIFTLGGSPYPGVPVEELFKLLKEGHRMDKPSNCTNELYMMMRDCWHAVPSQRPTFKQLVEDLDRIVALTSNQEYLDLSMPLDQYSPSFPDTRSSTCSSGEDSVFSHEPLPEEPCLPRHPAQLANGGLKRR

As to `O=C(Nc1ccc(-c2ccccc2)cc1)c1ccnn1CCc1ccncc1`, the IC50 – broadly, the point on the concentration scale where inhibition reaches its midpoint – was found to be 2.25 µM in [1], 0.95 µM in assay [2] and 1.56 µM in [3]. For the same compound, the Activity is greater than 30% in [4]; greater than 30% in the assay filed under Homo sapiens [5]; greater than 30% in [6]; greater than 30% in assay [7]; greater than 30% in assay [8]; less than 30% in [9]. Moreover, the Activity (in assay [10]; in assay [11]; in the assay listed under Homo sapiens [12]; in assay [13]; in [14]; in the assay listed under Homo sapiens [15]) was greater than 30% in each case. Moreover, the Activity (in the assay listed under Homo sapiens [16]; in assay [17]; in assay [18]) was greater than 30% each time.
Regarding `O=C(Nc1ccc(Oc2ccccc2)cc1)c1ccnn1CCc1ccncc1`, the IC50 is 5.25 µM in [1], 3.22 µM in [2] and greater than 10 µM in assay [3]. The Activity in [4] is greater than 30%; in the assay listed under Homo sapiens [5] it was greater than 30%; in [6], greater than 30%; in assay [7] it was greater than 30%; in assay [8], greater than 30%; in assay [9], less than 30%. Besides, the Activity (in [10]; in [11]; in the assay filed under Homo sapiens [12]; in assay [13]; in assay [14]; in the assay listed under Homo sapiens [15]) was greater than 30% each time. The Activity (in the assay filed under Homo sapiens [16]; in assay [17]; in assay [18]) was greater than 30% throughout.
As for `Cc1nn(CCc2ccncc2)c(C(=O)Nc2ccc(OC(F)(F)F)cc2)c1C`, the IC50 in [1], in assay [2] and in assay [3] was greater than 10 µM each time. Moreover, the Activity was greater than 30% in [4]; greater than 30% in the assay filed under Homo sapiens [5]; greater than 30% in [6]; greater than 30% in [7]; greater than 30% in [8]; less than 30% in assay [9]. The Activity (in assay [10]; in assay [11]; in the assay filed under Homo sapiens [12]; in [13]; in [14]; in the assay filed under Homo sapiens [15]) was greater than 30% each time. Further, the Activity (in the assay filed under Homo sapiens [16]; in assay [17]; in assay [18]) was greater than 30% each time.
For the compound `O=C(Nc1ccc(OC(F)(F)F)cc1)c1cc2ccccc2n1CCc1ccncc1`, the IC50 in assay [1], in [2] and in [3] was greater than 10 µM each time. The Activity was greater than 30% in assay [4]; greater than 30% in the assay filed under Homo sapiens [5]; greater than 30% in assay [6]; greater than 30% in [7]; greater than 30% in assay [8]; less than 30% in [9]. Also, the Activity (in [10]; in assay [11]; in the assay filed under Homo sapiens [12]; in [13]; in [14]; in the assay filed under Homo sapiens [15]) was greater than 30% in each case. Besides, the Activity (in the assay listed under Homo sapiens [16]; in [17]; in assay [18]) was greater than 30% throughout.
On to `O=C(Nc1ccc(Cl)cc1)c1ccnn1CCc1noc2ccccc12`, for which the IC50 in assay [1], in assay [2] and in assay [3] was greater than 10 µM in each case. The Activity is greater than 30% in [4]; greater than 30% in the assay filed under Homo sapiens [5]; greater than 30% in [6]; greater than 30% in [7]; greater than 30% in [8]; less than 30% in [9]. The Activity (in [10]; in assay [11]; in the assay listed under Homo sapiens [12]; in [13]; in assay [14]; in the assay filed under Homo sapiens [15]) was greater than 30% in each case. In addition, the Activity (in the assay filed under Homo sapiens [16]; in assay [17]; in [18]) was greater than 30% throughout.
`O=C(Nc1ccc(Cl)cc1)c1nccn1CCc1ccncc1`: the IC50 in assay [1] turned out to be 0.94 µM; in assay [2], 0.38 µM; in assay [3], 1.32 µM. Besides, the Activity in [4] is greater than 30%; in the assay filed under Homo sapiens [5], greater than 30%; in assay [6], greater than 30%; in assay [7], greater than 30%; in [8], greater than 30%; in [9], less than 30%. Besides, the Activity (in assay [10]; in assay [11]; in the assay listed under Homo sapiens [12]; in assay [13]; in assay [14]; in the assay listed under Homo sapiens [15]) was greater than 30% each time. The Activity (in the assay filed under Homo sapiens [16]; in [17]; in [18]) was greater than 30% each time.
With `O=C(Nc1ccc(Cl)cc1)c1ccnn1CCc1ccccn1`, the IC50 in assay [1], in assay [2] and in [3] was greater than 10 µM in each case. Further, the Activity in [4] was greater than 30%; in the assay filed under Homo sapiens [5] it was greater than 30%; in assay [6] it was greater than 30%; in assay [7], greater than 30%; in assay [8] it was greater than 30%; in assay [9] it was less than 30%. Moreover, the Activity (in [10]; in assay [11]; in the assay listed under Homo sapiens [12]; in assay [13]; in assay [14]; in the assay listed under Homo sapiens [15]) was greater than 30% throughout. Also, the Activity (in the assay filed under Homo sapiens [16]; in assay [17]; in assay [18]) was greater than 30% in each case.
Consider `Cc1cc(C(=O)Nc2ccc(OC(F)(F)F)cc2)n(CCc2ccncc2)n1`, for which the IC50 in assay [1] was 2.25 µM; in [2], 1.19 µM; in assay [3], 1.34 µM. Besides, the Activity in [4] was greater than 30%; in the assay listed under Homo sapiens [5], greater than 30%; in assay [6] it was greater than 30%; in assay [7] it was greater than 30%; in assay [8], greater than 30%; in [9], less than 30%. Also, the Activity (in assay [10]; in assay [11]; in the assay listed under Homo sapiens [12]; in [13]; in [14]; in the assay filed under Homo sapiens [15]) was greater than 30% throughout. Also, the Activity (in the assay listed under Homo sapiens [16]; in assay [17]; in assay [18]) was greater than 30% in each case.
Take `O=C(Nc1ccc(Cl)cc1)c1ccnn1CCc1c[nH]cn1`: the IC50 in [1], in assay [2] and in [3] was greater than 10 µM each time. For the same compound, the Activity in [4] is greater than 30%; in the assay filed under Homo sapiens [5], greater than 30%; in [6], greater than 30%; in assay [7] it was greater than 30%; in [8], greater than 30%; in assay [9], less than 30%. Further, the Activity (in assay [10]; in assay [11]; in the assay listed under Homo sapiens [12]; in [13]; in [14]; in the assay listed under Homo sapiens [15]) was greater than 30% in each case. Further, the Activity (in the assay filed under Homo sapiens [16]; in [17]; in assay [18]) was greater than 30% throughout.
As for `O=C(Nc1ccc(Cl)cc1)c1ccnn1CCc1cccnc1`, the IC50 in [1], in assay [2] and in assay [3] was greater than 10 µM in each case. The Activity in assay [4] is greater than 30%; in the assay listed under Homo sapiens [5], greater than 30%; in assay [6], greater than 30%; in [7], greater than 30%; in [8] it was greater than 30%; in [9], less than 30%. Also, the Activity (in assay [10]; in assay [11]; in the assay listed under Homo sapiens [12]; in [13]; in assay [14]; in the assay listed under Homo sapiens [15]) was greater than 30% each time. The Activity (in the assay filed under Homo sapiens [16]; in assay [17]; in assay [18]) was greater than 30% in each case.
On to `O=C(Nc1ccc(C(F)(F)F)cc1)c1nnnn1CCc1ccncc1`, for which the IC50 in [1] is 1.08 µM; in assay [2], 0.85 µM; in assay [3] it was 2.96 µM. For the same compound, the Activity was greater than 30% in assay [4]; greater than 30% in the assay filed under Homo sapiens [5]; greater than 30% in assay [6]; greater than 30% in assay [7]; greater than 30% in assay [8]; less than 30% in assay [9]. Further, the Activity (in assay [10]; in assay [11]; in the assay filed under Homo sapiens [12]; in assay [13]; in [14]; in the assay filed under Homo sapiens [15]) was greater than 30% each time. Besides, the Activity (in the assay listed under Homo sapiens [16]; in [17]; in assay [18]) was greater than 30% each time.
As for `CN(C(=O)c1ccnn1CCc1ccncc1)c1ccc(Cl)cc1`, the IC50 in assay [1] and in assay [2] was greater than 10 µM throughout.
